Experiments:
Type in all cases: in vivo
[1] = system: Monocotyledonous and dicotyledonous weed; assay: Post-emergence test experiment, weed control effect (Table 2); design: key to weed control effect, Setaria viridis (level) / weed control effect, Rorippa indica (level) / weed control effect, Abutilon theophrasti (level) / weed control effect, Echinochloa crus-galli (level) / weed control effect, Digitaria sanguinalis (level): Level 10: completely dead; Level 9: above 90% growth inhibition rate; Level 8: above 80% growth inhibition rate; Level 7: above 70% growth inhibition rate; Level 6: above 60% growth inhibition rate; Level 5: above 50% growth inhibition rate; Level 4: above 30% growth inhibition rate; Level 3: above 20% growth inhibition rate; Level 2: above 10% growth inhibition rate; Level 1: above 1-10% growth inhibition rate; Level 0: no effect; conditions: 3 weeks after spraying, greenhouse
Outline: (§1)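 Weed and crop seeds (wheat, corn, rice, soybean, cotton, oilseed, millet, sorghum) grown in soil in greenhouse; sprayed at 2-3 leaf stage, 2-3 weeks after sowing, with compound in acetone/Tween 80/water. Effects assessed after 3 weeks further greenhouse culture.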

[2] = system: main crop (wheat, corn, rice, soybean, cotton, oilseed, millet and sorghum); assay: Post-emergence test experiment, main crops (Table 2); design: key: Level 10: completely dead; Level 9: above 90% growth inhibition rate; Level 8: above 80% growth inhibition rate; Level 7: above 70% growth inhibition rate; Level 6: above 60% growth inhibition rate; Level 5: above 50% growth inhibition rate; Level 4: above 30% growth inhibition rate; Level 3: above 20% growth inhibition rate; Level 2: above 10% growth inhibition rate; Level 1: above 1-10% growth inhibition rate; Level 0: no effect; conditions: 3 weeks after spraying, greenhouse
Outline: as §1

Echinochloa crus-galli = assay: Weed control effect evaluation in transplanted rice field; design: key: Level 10: completely dead; Level 9: above 90% growth inhibition rate; Level 8: above 80% growth inhibition rate; Level 7: above 70% growth inhibition rate; Level 6: above 60% growth inhibition rate; Level 5: above 50% growth inhibition rate; Level 4: above 30% growth inhibition rate; Level 3: above 20% growth inhibition rate; Level 2: above 10% growth inhibition rate; Level 1: above 1-10% growth inhibition rate; Level 0: no effect; conditions: transplanted rice field pot test, application rate 60 g/ha, 14 days after treatment
Protocol: (§2) Rice field soil was loaded into a 1/1,000,000 ha pot. The seeds of Echinochloa, Scirpus juncoides, Bidens tripartite and Sagittaria trifolia were sowed and gently covered with soil, then left to stand still in greenhouse in the state of 0.5-1 cm of water storage. The tuber of Sagittaria trifolia was planted in the next day or 2 days later. It was kept at 3-4 cm of water storage thereafter. The weeds were treated by dripping the WP or SC water diluents prepared according to the common preparation method of the compounds of the present invention with pipette homogeneously to achieve specified effective amount when Echinochloa, Scirpus juncoides and Bidens tripartite reached 0.5 leaf stage and Sagittaria trifolia reached the time point of primary leaf stage.
(§3) The fertility condition of Echinochloa, Scirpus juncoides, Bidens tripartite and Sagittaria trifolia 14 days after the treatment of the compound of the invention and the fertility condition of rice 21 days after the treatment of the compound of the invention respectively with the naked eye.
(§4) The seeds of Echinochloa crus-galli, Scirpus juncoides and Monochoria vaginalis were collected from Heilongjing and Jiangsu Province of China.

Monochoria vaginalis = assay: as above; design: key: Level 10: completely dead; Level 9: above 90% growth inhibition rate; Level 8: above 80% growth inhibition rate; Level 7: above 70% growth inhibition rate; Level 6: above 60% growth inhibition rate; Level 5: above 50% growth inhibition rate; Level 4: above 30% growth inhibition rate; Level 3: above 20% growth inhibition rate; Level 2: above 10% growth inhibition rate; Level 1: above 1-10% growth inhibition rate; Level 0: no effect; conditions: transplanted rice field pot test, application rate 60 g/ha, 14 days after treatment
Protocol: as §2, §3, §4

Scirpus juncoides = assay: as above; design: key: Level 10: completely dead; Level 9: above 90% growth inhibition rate; Level 8: above 80% growth inhibition rate; Level 7: above 70% growth inhibition rate; Level 6: above 60% growth inhibition rate; Level 5: above 50% growth inhibition rate; Level 4: above 30% growth inhibition rate; Level 3: above 20% growth inhibition rate; Level 2: above 10% growth inhibition rate; Level 1: above 1-10% growth inhibition rate; Level 0: no effect; conditions: transplanted rice field pot test, application rate 60 g/ha, 14 days after treatment
Protocol: as §2, §3, §4

Rice = assay: Transplanted rice safety evaluation; design: key: Level 10: completely dead; Level 9: above 90% growth inhibition rate; Level 8: above 80% growth inhibition rate; Level 7: above 70% growth inhibition rate; Level 6: above 60% growth inhibition rate; Level 5: above 50% growth inhibition rate; Level 4: above 30% growth inhibition rate; Level 3: above 20% growth inhibition rate; Level 2: above 10% growth inhibition rate; Level 1: above 1-10% growth inhibition rate; Level 0: no effect; conditions: transplanted 3 leaf stage japonica rice, application rate 60 g/ha, 21 days after treatment
Protocol: In addition, the rice field soil that loaded into the 1/1,000,000 ha pot was leveled to keep water storage at 3-4 cm depth. The 3 leaf stage rice (japonica rice) was transplanted at 3 cm of transplanting depth the next day. The compound of the present invention was treated by the same way after 5 days of transplantation. The fertility condition of Echinochloa, Scirpus juncoides, Bidens tripartite and Sagittaria trifolia 14 days after the treatment of the compound of the invention and the fertility condition of rice 21 days after the treatment of the compound of the invention respectively with the naked eye.

Row | SMILES | Weed control effect, Echinochloa crus-galli (activity level) (Echinochloa crus-galli) | Weed control effect, Monochoria vaginalis (activity level) (Monochoria vaginalis) | Weed control effect, Scirpus juncoides (activity level) (Scirpus juncoides) | Rice (safety, activity level) (Rice) | weed control effect, Abutilon theophrasti (level) ([1]; 30 g/ha) | weed control effect, Bidens pilosa (level) ([1]; 30 g/ha) | weed control effect, Digitaria sanguinalis (level) ([1]; 30 g/ha) | weed control effect, Echinochloa crus-galli (level) ([1]; 30 g/ha) | weed control effect, Rorippa indica (level) ([1]; 30 g/ha) | weed control effect, Setaria viridis (level) ([1]; 30 g/ha) | effect on crop, corn (level) ([2]; 30 g/ha) | effect on crop, rice (level) ([2]; 30 g/ha) | effect on crop, wheat (level) ([2]; 30 g/ha) | further results
1 | CCOc1c(C(=O)Oc2c(C(=O)c3ccc(S(C)(=O)=O)c(Cn4ccc(C)n4)c3Cl)cnn2C)cnn1C [Compound 24] | 10 | 9 (Level 9: above 90% growth inhibition rate) | 10 | 1 (Level 1: above 1-10% growth inhibition rate) |  |  |  |  |  |  |  |  |  | weed control effect, Abutilon theophrasti (level) ([1]; 120 g/ha): 6 (Level 6: above 60% growth inhibition rate); weed control effect, Bidens pilosa (level) ([1]; 120 g/ha): 6 (Level 6: above 60% growth inhibition rate); weed control effect, Digitaria sanguinalis (level) ([1]; 120 g/ha): 1 (Level 1: above 1-10% growth inhibition rate); weed control effect, Echinochloa crus-galli (level) ([1]; 120 g/ha): 9 (Level 9: above 90% growth inhibition rate); weed control effect, Rorippa indica (level) ([1]; 120 g/ha): 4 (Level 4: above 30% growth inhibition rate); weed control effect, Setaria viridis (level) ([1]; 120 g/ha): 2 (Level 2: above 10% growth inhibition rate); effect on crop, corn (level) ([2]; 120 g/ha): 0; effect on crop, rice (level) ([2]; 120 g/ha): 0; effect on crop, wheat (level) ([2]; 120 g/ha): 0
2 | COCC(C)OCc1c(S(C)(=O)=O)ccc(C(=O)c2c(C)nn(C)c2OC(=O)c2cn(C)nc2C)c1Cl (stereo not shown) [Compound 36] | 9 (Level 9: above 90% growth inhibition rate) | 10 | 10 | 0 |  |  |  |  |  |  |  |  |  | weed control effect, Abutilon theophrasti (level) ([1]; 60 g/ha): 10; weed control effect, Bidens pilosa (level) ([1]; 60 g/ha): 8 (Level 8: above 80% growth inhibition rate); weed control effect, Digitaria sanguinalis (level) ([1]; 60 g/ha): 10; weed control effect, Echinochloa crus-galli (level) ([1]; 60 g/ha): 10; weed control effect, Rorippa indica (level) ([1]; 60 g/ha): 10; weed control effect, Setaria viridis (level) ([1]; 60 g/ha): 7 (Level 7: above 70% growth inhibition rate); effect on crop, corn (level) ([2]; 60 g/ha): 0; effect on crop, rice (level) ([2]; 60 g/ha): 1 (Level 1: above 1-10% growth inhibition rate); effect on crop, wheat (level) ([2]; 60 g/ha): 0
3 | Cc1nn(C)cc1C(=O)Oc1c(C(=O)c2ccc(S(C)(=O)=O)c(COCC(F)F)c2Cl)cnn1C [Compound 40] | 10 | 9 (Level 9: above 90% growth inhibition rate) | 9 (Level 9: above 90% growth inhibition rate) | 0 | 7 (Level 7: above 70% growth inhibition rate) | 7 (Level 7: above 70% growth inhibition rate) | 10 | 10 | 10 | 9 (Level 9: above 90% growth inhibition rate) | 0 | 5 (Level 5: above 50% growth inhibition rate) | 0 | 
4 | CCOCc1c(S(C)(=O)=O)ccc(C(=O)c2c(C3CC3)nn(C)c2OC(=O)c2cn(C)nc2C)c1Cl [Compound 46] | 8 (Level 8: above 80% growth inhibition rate) | 9 (Level 9: above 90% growth inhibition rate) | 9 (Level 9: above 90% growth inhibition rate) | 0 | 7 (Level 7: above 70% growth inhibition rate) | 7 (Level 7: above 70% growth inhibition rate) | 10 | 10 | 10 | 10 | 1 (Level 1: above 1-10% growth inhibition rate) | 3 (Level 3: above 20% growth inhibition rate) | 0 | 
5 | COCc1c(S(C)(=O)=O)ccc(C(=O)c2c(C3CC3)nn(C)c2OC(=O)c2cn(C)nc2C)c1Cl [Compound 51] | 10 | 10 | 9 (Level 9: above 90% growth inhibition rate) | 0 | 7 (Level 7: above 70% growth inhibition rate) | 7 (Level 7: above 70% growth inhibition rate) | 10 | 10 | 10 | 10 | 4 (Level 4: above 30% growth inhibition rate) | 3 (Level 3: above 20% growth inhibition rate) | 0 | 
6 | C#CCOCc1c(S(C)(=O)=O)ccc(C(=O)c2c(C3CC3)nn(C)c2OC(=O)c2cnn(C)c2)c1Cl [Compound 60] | 10 | 10 | 10 | 2 (Level 2: above 10% growth inhibition rate) | 6 (Level 6: above 60% growth inhibition rate) | 4 (Level 4: above 30% growth inhibition rate) | 7 (Level 7: above 70% growth inhibition rate) | 10 | 7 (Level 7: above 70% growth inhibition rate) | 7 (Level 7: above 70% growth inhibition rate) | 0 | 5 (Level 5: above 50% growth inhibition rate) | 0 | 
7 | CCOCCOCc1c(S(C)(=O)=O)ccc(C(=O)c2cnn(C)c2OC(=O)c2cnn(C)c2)c1Cl [Compound 68] | 7 (Level 7: above 70% growth inhibition rate) | 10 | 10 | 1 (Level 1: above 1-10% growth inhibition rate) | 7 (Level 7: above 70% growth inhibition rate) | 7 (Level 7: above 70% growth inhibition rate) | 7 (Level 7: above 70% growth inhibition rate) | 10 | 10 | 9 (Level 9: above 90% growth inhibition rate) | 0 | 3 (Level 3: above 20% growth inhibition rate) | 0 | 
